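96-well plates; 48 h exposure; 5 concentrations. Endpoints by linear interpolation between flanking doses. Not reached: highest tested concentration assigned. GI50 = concentration required for 50% inhibition of growth. At the TGI there is no net growth.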
Experiments:
Assay in all cases: growth of human tumour cells (NCI), 48 h
[1] = system: SF-539 CNS
[2] = system: M14 melanoma
[3] = system: MALME-3M melanoma
[4] = system: EKVX NSCLC
[5] = system: MOLT-4 leukemia
[6] = system: MDA-MB-231 breast
[7] = system: SK-OV-3 ovarian
[8] = system: LOX IMVI melanoma
[9] = system: SR leukemia
[10] = system: RPMI-8226 leukemia
[11] = system: 786-0 renal

Compound | TGI [1] [µM] | TGI [2] [µM] | TGI [3] [µM] | TGI [4] [µM] | TGI [5] [µM] | TGI [6] [µM] | TGI [7] [µM] | TGI [8] [µM] | TGI [9] [µM] | TGI [10] [µM] | TGI [11] [µM] | GI50 [1] [µM] | GI50 [10] [µM] | GI50 [2] [µM] | GI50 [4] [µM] | GI50 [5] [µM] | GI50 [6] [µM] | GI50 [7] [µM] | GI50 [8] [µM] | GI50 [9] [µM]
COc1ccc(C(=O)NC2=C(Cl)C(=O)c3ccccc3C2=O)cc1 | 11.6 | 6.95 | 3.19 | 26.1 | > 22 | 14.6 | 9.85 | 6.66 | > 19.6 | – | – | – | – | – | – | – | – | – | – | –
O=NN1C(c2ccccc2)C2CCCC(C2=O)C1c1ccccc1 (configuration not stated) | > 100 | – | 19.8 | > 79.5 | > 78.1 | – | 73.6 | 54.9 | – | 48.4 | – | – | – | – | – | – | – | – | – | –
C[C@]12Cc3cnc(-c4ccccc4)nc3C[C@@H]1CC[C@@H]1[C@@H]2CC[C@@]2(C)[C@H]1CC[C@]2(C)O | 9.55 | 32.5 | 43.5 | > 87.1 | > 100 | 73.1 | 50 | 31.3 | 88.5 | 55 | 27.5 | – | – | – | – | – | – | – | – | –
COC(=O)c1c(C)[nH]c2c1C(=O)C(=O)c1nc(C)c(C)nc1-2 | 24.8 | 27 | 15.7 | 22.6 | 95 | – | 18.5 | 24.1 | 44.9 | 47.3 | 25.9 | – | – | – | – | – | – | – | – | –
O=S(=O)(O)c1cc(S(=O)(=O)O)c2cc(N=Nc3c(O)ccc4ccccc34)ccc2c1 | – | > 100 | > 100 | > 100 | > 100 | > 100 | > 100 | > 100 | – | > 100 | > 100 | – | – | – | – | – | – | – | – | –
COc1ccc(NC(=S)NNC(=O)c2nsc3ccccc23)cc1 | 75.8 | 36.7 | – | > 100 | 87.8 | – | – | > 100 | > 100 | > 100 | – | – | – | – | – | – | – | – | – | –
Nc1c(OCC(=O)O)ccc2cc(S(=O)(=O)O)ccc12 | > 100 | > 100 | > 100 | – | – | > 100 | > 100 | > 100 | – | > 100 | > 100 | – | – | – | – | – | – | – | – | –
O=C(Nn1c(-c2cccs2)nc2ccc(I)cc2c1=O)c1ccccc1 | > 100 | > 100 | – | 70.5 | > 100 | – | – | 46.9 | 61.4 | 58.1 | > 100 | 30.1 | 22.8 | – | – | – | – | – | – | –
CN1CC(c2ccccc2)C(O)(C2(c3ccccc3)CN(C)CC(c3ccccc3)C2=O)C(c2ccccc2)C1 (configuration not stated) | > 100 | > 100 | – | > 100 | > 100 | > 100 | – | > 100 | > 100 | > 100 | > 100 | – | – | – | – | – | – | – | – | –
Cc1cn(C2C=CC(COP(=O)(OCc3ccc([N+](=O)[O-])o3)N(C)CCCCCl)O2)c(=O)[nH]c1=O (configuration not stated) | 12.3 | 17.3 | 7.36 | – | 26.4 | 25.9 | 24 | 13.5 | 4.83 | 14.1 | 23.1 | – | – | – | – | – | – | – | – | –
CC[C@H](C)C1=C(OC(C)=O)[N@+]2([O-])Oc3ccc(-c4c(O)c(O)c(-c5ccc(OC(C)=O)cc5)c(OC(C)=O)c4OC(C)=O)cc3O[C@]2([C@@H](C)CC)C(=O)N1O | > 50 | > 50 | 46.6 | > 50 | > 50 | > 50 | > 50 | > 50 | 39.7 | 25.5 | 43.2 | – | – | – | – | – | – | – | – | –
O=C(O)CCO/N=C1/C(c2c(O)[nH]c3ccccc23)=Nc2ccccc21 | > 100 | > 100 | > 100 | 47.9 | 77.2 | > 100 | 21.1 | 44.8 | 57.9 | > 100 | 94.8 | – | – | – | – | – | – | – | – | –
CC[C@@]1(OC(=O)CN(C)C)C(=O)OCc2c1cc1n(c2=O)Cc2cc3c(N)cccc3nc2-1 | – | 0.128 | – | 3.58 | 0.211 | > 100 | 0.884 | 0.162 | 0.176 | 0.541 | – | – | 0.0636 | 0.0178 | 0.262 | < 0.01 | 1.07 | 0.0402 | 0.014 | < 0.01
OC(c1ccc(Cl)cc1)(c1ccc(Cl)cc1)c1cncnc1 | – | 32.8 | > 100 | – | 52.3 | 33.9 | – | > 100 | > 100 | 85.3 | – | – | – | – | – | – | – | – | – | –
Clc1cc2ccccc2c2ccccc12 | > 100 | > 100 | > 100 | > 100 | > 100 | > 100 | – | > 100 | > 100 | > 100 | > 100 | – | – | – | – | – | – | – | – | –
O=C(O)C1OC1C(=O)O (configuration not stated) | – | > 100 | > 100 | > 100 | – | > 100 | > 100 | > 100 | > 100 | > 100 | > 100 | – | – | – | – | – | – | – | – | –
CCc1c2cc(OC)c(OC)cc2cc2c3cc(OC)c(OC)cc3cc[n+]12 (tested in a mixture with another compound) | > 94.9 | > 86.6 | 44.2 | > 88 | > 100 | 48.8 | > 97.2 | > 63 | > 57.9 | > 47.3 | > 73 | – | – | – | – | – | – | – | – | –
CO/N=C(/C)c1cccc(Nc2nc3ccc(Cl)cc3c3[nH]c4ccccc4c23)c1 | 30.1 | 20.7 | – | – | 7.91 | 27.8 | 49.6 | 26 | 14.6 | 17 | 20.5 | – | – | – | – | – | – | – | – | –
COc1cc2c(cc1OC)C1c3ccccc3CCN1CCC2 (configuration not stated) | > 100 | > 100 | > 100 | > 100 | > 100 | > 100 | > 100 | > 100 | > 100 | > 100 | > 100 | – | – | – | – | – | – | – | – | –
CC(C)=Cc1cc(C)c2c3c(c(O)c(O)c(C)c13)C(C)=CC2=O | 71.6 | 48.9 | – | – | 54.7 | 64.4 | 89 | 38 | 78.1 | 15 | 64.8 | – | – | – | – | – | – | – | – | –
CN(C)CCCNc1ccc2nnn3c4ccc(OC(=O)c5ccccc5)cc4c(=O)c1c23 | 22.7 | 28.3 | 29.2 | 20.2 | 9.41 | 27.3 | 42.9 | 15.2 | 2.61 | 25.5 | 17.5 | – | – | – | – | – | – | – | – | –
Clc1ccc(C2CC(c3cccc(Nc4ccncc4)c3)=NN2c2ccc(Cl)cc2)cc1 (configuration not stated) | 3.03 | – | – | 3.04 | 5.52 | – | 3.41 | – | – | – | – | 1.64 | – | – | 1.58 | 2.18 | – | 1.77 | – | –
c1ccc2c(c1)OCCc1cn[nH]c1-2 | > 100 | – | > 100 | > 100 | > 100 | – | > 100 | > 100 | – | – | – | – | – | – | – | – | – | – | – | –
O=C1C[C@H](COCc2ccccc2)NC(=O)C[C@H](COCc2ccccc2)NC(=O)C[C@H](COCc2ccccc2)N1 | 75.1 | > 100 | > 100 | > 100 | > 100 | 85.2 | 57.3 | > 100 | > 100 | > 100 | > 100 | – | – | – | – | – | – | – | – | –
COc1ccc(C(=O)O[C@H]2CC[C@@]3(C)[C@@H]4CC[C@H]5[C@]6(O)C[C@H](O)[C@@]7(O)[C@@H](CN8C[C@@H](C)CC[C@H]8[C@@]7(C)O)[C@]6(O)C[C@@]53OC24O)cc1OC | > 100 | > 100 | > 100 | > 100 | > 100 | > 100 | > 100 | > 100 | > 100 | > 100 | > 100 | – | – | – | – | – | – | – | – | –
COc1ccc(/C=C2\C[C@H]3[C@@H]4CC=C5C[C@@H](OC(C)=O)CC[C@]5(C)[C@H]4CC[C@]3(C)\C2=N\O)cc1OC | > 100 | > 100 | > 100 | 27.2 | > 100 | – | > 100 | > 100 | > 100 | 88.2 | > 100 | – | – | – | – | – | – | – | – | –
O=C1CCCC/C1=C1/SC(=Nc2ccccc2)C(=Nc2ccccc2)N1c1ccccc1 | – | > 100 | > 100 | – | > 100 | > 100 | > 100 | – | > 100 | > 100 | – | – | – | – | – | – | – | – | – | –
O=C(O)C(O)(c1ccc(-c2ccccc2)cc1)c1ccc(-c2ccccc2)cc1 | – | > 100 | 60.4 | 70.9 | > 100 | 79.1 | – | 31.8 | > 100 | > 100 | 80.4 | – | – | – | – | – | – | – | – | –
